A short description of data set [1]: Decomposition rate under partial discharge in the presence of oxygen. The class given is physicochemical. Particulars: gas mixture with O2 and CO2 (4 vol.-% 2-C4HF7, 4 vol.-% O2, 92 vol.-% CO2); needle-plane electrodes, positive DC 0-35 kV. As to the method: The decomposition rate of 2-C4HF7 in a gas mixture containing carbon dioxide and oxygen were tested. Specifically, a gas mixture containing 4 vol.-% 2-C4HF7, 4 vol.-% O2 and 92 vol.-% CO2 was subjected to partial discharge tests and the resulting decomposition was determined.
Specifically, an experimental setup consisting of a standard GIS-vessel (volume: 55 L) with a needle-plane electrode arrangement was used. A total of ten steel needles (R_100 μm) were connected to a high voltage DC power supply (positive, 0-35 kV). The gap spacing was set to 10 mm. The vessel was equipped with a fan keeping the gas mixture homogeneous during the experiments.

Data set [2] in a line: Dielectric withstand test (breakdown voltage, step DC, uniform field). The class given is physicochemical. As to the method: In addition to these tests, the dielectric strength of a mixture containing a monohydrofluoroolefin according to various embodiments, specifically 2-C4HF7, and having a dew point of −5° C. and −30° C., respectively, was determined and compared to the respective dielectric strength of the perfluoroketone decafluoro-3-methylbutan-2-one (“C5”).
Specifically, dielectric withstand tests were performed under DC (step DC, rise-time 300 ns, maximum application time 30 s) in a small vessel (6 L) and custom-built for dielectric testing. Large electrodes (12 cm diameter) with a Rogowski-profile and separated by a small (1.0 cm) distance were used to obtain a uniform field. Prior to the test, the electrodes were sandblasted to create a uniform surface roughness profile (Rt=40 μm).
A large amount of measurements (typically, more than 100) of measurements were performed; the peak voltage level used for each voltage application was randomly selected in the region close to U50, the voltage level for which a 50% breakdown probability is expected. The outcome (breakdown or hold) of each measurement is extracted from the time-dependence of the voltage across the test object. A probit regression is then used to fit the results to a probability distribution and to extract U50 and s, the width of the breakdown probability distribution, from the measurement data.

In the case of `FC(=C(F)C(F)(F)F)C(F)(F)F` [2-C4F8, octafluorobutene], in data set [1], the “decomposition rate under partial discharge” value is listed as 7 mmol/C. In addition, the breakdown voltage worked out at 17.5 kV/mm in data set [2] (negative direct current, mixture, partial pressure 228 mbar at 20° C.) and 17.7 kV/mm in data set [2] (positive direct current, mixture, partial pressure 228 mbar at 20° C.).

As to `O=C(C(F)(F)F)C(F)(C(F)(F)F)C(F)(F)F` [C5, 1,1,1,3,4,4,4-heptafluoro-3-(trifluoromethyl)-butan-2-one], the breakdown voltage amounted to 19.2 kV/mm in data set [2] (negative direct current, mixture with O2 and CO2, dew point -5° C.); 16.5 kV/mm in data set [2] (negative direct current, mixture with O2 and CO2, dew point -30° C.); 19.7 kV/mm in data set [2] (positive direct current, mixture with O2 and CO2, dew point -5° C.); 16.9 kV/mm in data set [2] (positive direct current, mixture with O2 and CO2, dew point -30° C.).

Values taken from patent US11978600B2, “Dielectric-insulation or arc-extinction fluid” (HITACHI ENERGY LTD, priority 2019, dated 2024).
